Experimental data published in paper PMC7472354, “Enhanced Antimicrobial Activity of N-Terminal Derivatives of a Novel Brevinin-1 Peptide from The Skin Secretion of Odorrana schmackeri” (Toxins, 2020).
Read-outs that look alike come from different tables or passages of the source. Where a SMILES comes first, the peptide text is derived from it. Bridges are numbered along the chain shown (N, C = ends).

How the values were obtained:
P. aeruginosa = assay type: cell-based, Pseudomonas aeruginosa; settings: 24 h
Experimental: (§1) The minimal inhibitory concentrations (MICs) and minimum bactericidal concentrations (MBCs) were evaluated to determine the antimicrobial activity of synthetic peptides. The microorganisms employed in the study are two kinds of Gram-negative bacteria, Escherichia coli (NCTC 10418) and Pseudomonas aeruginosa (ATCC 27853), three kinds of Gram-positive bacteria, Staphylococcus aureus (NCTC 10788), Methicillin-resistant Staphylococcus aureus (MRSA, ATCC 12493) and Enterococcus faecalis (NCTC 12697) and a yeast, Candida albicans (NCPF 1467), as indicated previously. For antimicrobial assays, 5 × 10^5 CFU/mL of bacterial suspensions were incubated with the concentrations of the peptides (ranging from 1 µM to 512 µM) for 24 h at 37 °C. The sterilised broth medium was used as the positive control and the microorganism cultured in the medium only was treated as the negative control. […] The MBC results were defined as the lowest bactericidal concentrations of peptide. The antimicrobial activity of peptides was tested by monitoring the absorbance at 550 nm using an ELISA plate reader (Biolise BioTek EL808, Winooski, VT, USA).
(§2) The activity of peptides in the different environmental conditions including different concentrations of NaCl (50, 100 and 150 mM) and MgCl2 (0.5, 1 and 2 mM), pH (6, 7 and 8), temperature (50 °C, 75 °C and 100 °C) and 10% fetal bovine serum (FBS) solution, was evaluated using the broth microdilution assay as described in the antimicrobial activity assay. For the stability test of peptides in the presence of salt, pH and serum, these conditions were adjusted in the fresh medium that was further used to dilute the bacteria suspension. The peptides were also dissolved in such broth and mixed with the bacteria suspension in the 96 well plate. For the thermal stability test, the peptides were dissolved in the water and incubated at different temperature for 15 min before dosing in the plate. The sterilised broth with corresponding conditions was used as the positive controls, and the bacteria suspension without any treatment was used as the negative controls.

S. aureus = assay type: cell-based, Staphylococcus aureus; settings: 24 h
Experimental: as §1, §2

MRSA = assay type: cell-based, Staphylococcus aureus; settings: 24 h
Experimental: as §1, §2

E. coli = assay type: cell-based, Escherichia coli; settings: 24 h
Experimental: as §1, §2

[1] = tested on: P. aeruginosa (ATCC 27853) biofilm; assay type: cell-based, Pseudomonas aeruginosa
Experimental: (§3) The anti-biofilm effects of all synthetic peptides were evaluated, which was described in our previous study. The organisms, including S. aureus (NCTC 10788), E. coli (NCTC 10418), MRSA (ATCC 12493), E. faecalis (NCTC 12697) and P. aeruginosa (ATCC 27853), were investigated in this study. Gram-positive bacteria were cultured in the TSB broth and Gram-negative bacteria were cultured in the LB broth. The anti-biofilm effects were determined based on the MBIC and MBEC of all the peptides. For the determination of MBIC, 5 × 10^5 CFU/mL bacterial cultures were incubated with the peptides concentrations (ranging from 1 µM to 512 µM) for 24 h. The sterilised medium and bacterial suspension without any treatment were used as the negative controls and positive controls, respectively. After incubation, wells were rinsed, fixed, stained, washed and dissolved with phosphate buffer saline (PBS), methanol (90%, v/v), crystal violet (0.1%, w/v), sterile deionised water and acetic acid (30%, v/v), respectively. The absorbance of dissolved stain was measured at a 595 nm using a Synergy HT plate reader (Biotech, Minneapolis, MN, USA).
(§4) For the MBEC assay, the peptide concentrations were prepared as above. The bacteria were cultured in the 96 well plate for 24–48 h, which allowed the formation of mature biofilm in the plate. Then, the bacterial culture was removed from the plate. The biofilm was further washed to remove the planktonic bacteria using PBS. Then, the fresh broth that contained different peptide concentrations was added in the plate for incubation of 24 h at 37 °C. After incubation, the plate was stained by crystal violet as mentioned above. The definition of MBIC can be given when compared to the negative control group (≥90%, MBIC90; ≥50%, MBIC50). The definition of the MBEC can be given when compared to the negative control group (≥90%, MBEC90; ≥50%, MBEC50).

[2] = tested on: S. aureus (NCTC 10788) biofilm; assay type: cell-based, Staphylococcus aureus
Experimental: as §3, §4

[3] = tested on: MRSA (ATCC 12493) biofilm; assay type: cell-based, Staphylococcus aureus
Experimental: as §3, §4

C. albicans = assay type: cell-based, Candida albicans; settings: 24 h
Experimental: as §1, §2

[4] = tested on: E. faecalis (NCTC 12697) biofilm; assay type: cell-based, Enterococcus faecalis
Experimental: as §3, §4

[5] = tested on: E. coli (NCTC 10418) biofilm; assay type: cell-based, Escherichia coli
Experimental: as §3, §4

E. faecalis = assay type: cell-based, Enterococcus faecalis; settings: 24 h
Experimental: as §1, §2

[6] = tested on: Candida albicans (NCPF 1467); assay type: cell-based; settings: for MBC: NCPF 1467, 18 h; for MIC: NCPF 1467, 24 h
Experimental: as §1, with “For antimicrobial assays, 5 × 10^5 CFU/mL of bacterial suspensions were incubated with the concentrations of the peptides (ranging from 1 µM to 512 µM) for 24 h at 37 °C.” left out

[7] = tested on: Methicillin-resistant Staphylococcus aureus (MRSA, ATCC 12493); assay type: cell-based; settings: for MBC: ATCC 12493, 18 h; for MIC: ATCC 12493, 24 h
Experimental: as §1, with “For antimicrobial assays, 5 × 10^5 CFU/mL of bacterial suspensions were incubated with the concentrations of the peptides (ranging from 1 µM to 512 µM) for 24 h at 37 °C.” left out

[8] = tested on: Escherichia coli (NCTC 10418); assay type: cell-based; settings: for MBC: NCTC 10418, 18 h; for MIC: NCTC 10418, 24 h
Experimental: as §1, with “For antimicrobial assays, 5 × 10^5 CFU/mL of bacterial suspensions were incubated with the concentrations of the peptides (ranging from 1 µM to 512 µM) for 24 h at 37 °C.” left out

[9] = tested on: Staphylococcus aureus (NCTC 10788); assay type: cell-based; settings: for MBC: NCTC 10788, 18 h; for MIC: NCTC 10788, 24 h
Experimental: as §1, with “For antimicrobial assays, 5 × 10^5 CFU/mL of bacterial suspensions were incubated with the concentrations of the peptides (ranging from 1 µM to 512 µM) for 24 h at 37 °C.” left out

[10] = tested on: Enterococcus faecalis (NCTC 12697); assay type: cell-based; settings: for MBC: NCTC 12697, 18 h; for MIC: NCTC 12697, 24 h
Experimental: as §1, with “For antimicrobial assays, 5 × 10^5 CFU/mL of bacterial suspensions were incubated with the concentrations of the peptides (ranging from 1 µM to 512 µM) for 24 h at 37 °C.” left out

[11] = tested on: Pseudomonas aeruginosa (ATCC 27853); assay type: cell-based; settings: for MBC: ATCC 27853, 18 h; for MIC: ATCC 27853, 24 h
Experimental: as §1, with “For antimicrobial assays, 5 × 10^5 CFU/mL of bacterial suspensions were incubated with the concentrations of the peptides (ranging from 1 µM to 512 µM) for 24 h at 37 °C.” left out

CC[C@H](C)[C@H](NC(=O)CNC(=O)[C@@H]1CCCN1C(=O)[C@H](CC(C)C)NC(=O)[C@@H](N)Cc1ccccc1)C(=O)N[C@@H](CC(C)C)C(=O)N[C@@H](CCCCN)C(=O)N[C@H](C(=O)N[C@@H](C)C(=O)N[C@@H](C)C(=O)N[C@@H](CC(N)=O)C(=O)N[C@H](C(=O)N[C@H](C(=O)N1CCC[C@H]1C(=O)NCC(=O)N[C@H](C(=O)N[C@H](C(=O)N[C@H]1CSSC[C@@H](C(=O)O)NC(=O)[C@H](CCCCN)NC(=O)[C@H](CCCCN)NC(=O)[C@H]([C@@H](C)O)NC(=O)[C@H]([C@@H](C)CC)NC(=O)[C@H](C)NC1=O)[C@@H](C)CC)C(C)C)C(C)C)C(C)C)C(C)C [Brevinin-1OS] (H-FLPGILKVAANVVPGVICAITKKC-OH; disulfide 18-24)
4 µM: MIC (S. aureus; pH 7) | MIC (S. aureus; pH 8) | MIC (MRSA; pH 8) | MBIC50 ([2]; NCTC 10788, 24 h) | MBIC90 ([2]; NCTC 10788, 24 h) | MIC [9]
16 µM: MIC (C. albicans; pH 7) | MIC (C. albicans; pH 8) | MIC (E. faecalis; pH 8) | MBC [9] | MBC [10]
32 µM: MIC (E. coli; pH 6) | MIC (E. coli; pH 7) | MBEC50 [2] | MBIC90 ([3]; ATCC 12493, 24 h) | MBIC50 ([4]; NCTC 12697, 24 h) | MIC (E. faecalis; pH 7) | MBC [7] | MIC [7]
64 µM: MIC (MRSA; pH 6) | MBEC90 [2] | MBEC50 [3] | MIC (C. albicans; pH 6) | MBIC90 ([4]; NCTC 12697, 24 h) | MBC [6]
128 µM: MIC (P. aeruginosa; pH 6) | MIC (E. coli; pH 8) | MBIC50 ([5]; NCTC 10418, 24 h) | MBIC90 ([5]; NCTC 10418, 24 h) | MIC (E. faecalis; pH 6) | MIC [8]
8 µM: MIC (S. aureus; pH 6) | MIC (MRSA; pH 7) | MBIC50 ([3]; ATCC 12493, 24 h) | MIC [6] | MIC [10]
256 µM: MIC (P. aeruginosa; pH 7) | MIC (P. aeruginosa; pH 8) | MBIC50 ([1]; ATCC 27853, 24 h) | MBIC90 ([1]; ATCC 27853, 24 h) | MBEC90 [3] | MBEC50 [4] | MIC [11]
> 512 µM: MBEC90 [4] | MBEC50 [5] | MBEC90 [5] | MBC [8] | MBC [11]
512 µM: MBEC50 [1] | MBEC90 [1]

CC[C@H](C)[C@H](NC(=O)[C@@H](NC(=O)CNC(=O)[C@@H]1CCCN1C(=O)[C@@H](NC(=O)[C@@H](NC(=O)[C@H](CC(N)=O)NC(=O)[C@H](C)NC(=O)[C@H](C)NC(=O)[C@@H](NC(=O)[C@H](CCCCN)NC(=O)[C@H](CC(C)C)NC(=O)[C@@H](NC(=O)CNC(=O)[C@@H]1CCCN1C(=O)[C@H](CC(C)C)NC(=O)[C@@H](N)Cc1ccccc1)[C@@H](C)CC)C(C)C)C(C)C)C(C)C)C(C)C)C(=O)O [OSa] (H-FLPGILKVAANVVPGVI-OH)
> 512 µM: MBC [6] | MIC [6] | MBC [7] | MIC [7] | MBC [8] | MIC [8] | MBC [9] | MIC [9] | MBC [10] | MIC [10] | MBC [11] | MIC [11]
